Biological target: T1, PKCζ (protein kinase C ζ) (Homo sapiens, UniProt Q05513)
T1 construct: gene PRKCZ
T1 sequence (Q05513 1-592): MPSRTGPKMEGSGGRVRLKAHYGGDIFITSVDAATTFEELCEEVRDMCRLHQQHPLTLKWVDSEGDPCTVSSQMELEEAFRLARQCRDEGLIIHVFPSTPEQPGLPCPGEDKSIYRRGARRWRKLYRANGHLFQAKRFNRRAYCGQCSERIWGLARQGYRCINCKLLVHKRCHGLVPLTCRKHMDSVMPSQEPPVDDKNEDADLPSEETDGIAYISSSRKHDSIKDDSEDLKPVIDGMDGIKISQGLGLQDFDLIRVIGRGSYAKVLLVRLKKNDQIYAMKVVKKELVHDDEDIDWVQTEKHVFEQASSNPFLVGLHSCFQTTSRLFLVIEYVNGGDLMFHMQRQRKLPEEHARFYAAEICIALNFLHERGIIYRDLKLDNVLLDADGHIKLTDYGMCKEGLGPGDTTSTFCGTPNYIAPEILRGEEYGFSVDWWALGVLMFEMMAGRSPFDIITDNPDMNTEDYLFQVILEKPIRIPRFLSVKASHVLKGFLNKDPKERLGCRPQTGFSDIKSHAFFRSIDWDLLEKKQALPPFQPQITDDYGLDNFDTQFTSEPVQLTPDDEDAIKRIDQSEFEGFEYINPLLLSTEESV
Assay: Z'-LYTE kinase assay (Ser/Thr […] peptide) with purchased PKCζ (Invitrogen Cat. No. […]), […] ATP
Assay type: biochemical

Cc1c(CSC(=N)N)c(C)c(CSC(=N)N)c(C)c1CSC(=N)N [J-4]
IC50: ~10 µM

— article PMC5581453, “Combination therapy of PKCζ and COX-2 inhibitors synergistically suppress melanoma metastasis” (Journal of Experimental & Clinical Cancer Research : CR, 2017)
